Results published in PMC12858405, “Ideal efficacy photoswitching for chromocontrol of TRPC4/5 channel functions in live tissues” (Nature Chemical Biology, 2026).

Tests used:
[1] = Stability in DTT-containing buffers (HPLC analysis); assay type: physicochemical; conditions: confirmed by HPLC analysis
Description: Müller, Niemeyer, et al., Schaefer & Thorn-Seshold 2025: Ideal Efficacy Photoswitching of TRPC4/5 in Tissue 1.4 Supplementary Note 4: Structural Biology and TRP Selectivity
We prepared and acquired TRPC5:E/Z-AzHC samples in one lab, and TRPC4:E/Z-AzPico independently in another, which was useful for several plausibility checks. (1) There are additional lipid densities in the pockets that are present in both TRPC4 and TRPC5, and the changes to the lipid densities in the EM maps between E and Z isomers are similar in TRPC4 and TRPC5 as well: so these changes are not dependent on protein, nature of amphipol used, or lab in which the data were obtained/processed, but are rather inherent features of the system. (2) The positions of the distal rings which are much less-well-resolved than the rest of the ligand, were independently best aligned for the E and Z isomers, and in each case found to be Z-buried vs. E-projected, which gives more confidence in this structure-based analysis. (3) Identical deleterious effects of DTT were found in each lab, and removing it removed those problems.
1.4.1 Detailed Commentary: hTRPC5:E/Z-AzHC […]
We determined high-resolution structures of hTRPC5:(E)-AzHC (2.60 Å) and hTRPC5:(Z)-AzHC (2.90 Å) without applying symmetry (Fig. 3; Supplementary Fig. 4-5 and 15-18; Supplementary […]

[2] = tested on: Th+ neurons of Th-GCaMP6f-ΔTrpc5 mice; assay: GCaMP6f Ca2+ imaging of Th+ neurons in arcuate nucleus brain slices with 355 nm photoswitching, Th-GCaMP6f-ΔTrpc5 (5ko) mice
Description: slices through the ARC of mice expressing the Ca2+ indicator GCaMP6f in Th+ neurons (Fig. 4),
we investigated (1) whether Ca2+ responses at endogenous TRPC5 expression levels can be
TRPC5 expression using TRPC5-deficient brain slices, (3) whether a dose dependence could be
detected, and (4) whether there are properties in channel activity that can be distinguished between
concentration-response measurements (Fig. 5d).

TRPC5 = conditions: ag. = agonistic effect; read-out: EC50 [nM] simple agonism, TRPC5; cited from earlier work

SMILES | Stability in DTT-containing buffers [1] | Ca2+ photoresponse in TRPC5-knockout slices ([2]; 500 nM, 355 nm pulse) | Change in spontaneous Ca2+ activity in TRPC5-deficient Th+ neurons vs before UV ([2]; 1 µM) | EC50 (TRPC5) [nM]
Cn1c(=O)n(CCCO)c(=O)c2c1nc(Oc1ccc(N=Nc3ccccc3)c(Cl)c1)n2Cc1ccc(Cl)cc1 [AzHC] | degrades | did not respond | no change | 
Cn1c(=O)n(CCCO)c(=O)c2c1nc(Oc1ccc(Cl)c(OC(F)(F)F)c1)n2Cc1ccc(Cl)cc1 [AM237, reference compound] |  |  |  | 20
